Literature values as cited in patent publication US9180154B2, “Method of manufacturing magnoliidae compounds” (Arizona Health Consulting Group, LLC, priority 2009, dated 2015).

Legend:
[1] = tested on: D1-type and D2-type DA receptor; settings: D1-type versus D2-type DA receptor
D2 receptor = molecular target: T1, D2 receptor (Rattus norvegicus, UniProt P61169)
T1 construct: from tissue; host or cells: normal rats (in vivo; tissue not specified)

D1 receptors = molecular target: T2, D1 receptors (Rattus norvegicus, UniProt P18901); settings: rats with unilateral nigral lesion (DA receptor super sensitivity in striatum)
T2 construct: from tissue; host or cells: rats with unilateral nigral lesion (in vivo; striatum mentioned)
T2 sequence (P18901 whole entry): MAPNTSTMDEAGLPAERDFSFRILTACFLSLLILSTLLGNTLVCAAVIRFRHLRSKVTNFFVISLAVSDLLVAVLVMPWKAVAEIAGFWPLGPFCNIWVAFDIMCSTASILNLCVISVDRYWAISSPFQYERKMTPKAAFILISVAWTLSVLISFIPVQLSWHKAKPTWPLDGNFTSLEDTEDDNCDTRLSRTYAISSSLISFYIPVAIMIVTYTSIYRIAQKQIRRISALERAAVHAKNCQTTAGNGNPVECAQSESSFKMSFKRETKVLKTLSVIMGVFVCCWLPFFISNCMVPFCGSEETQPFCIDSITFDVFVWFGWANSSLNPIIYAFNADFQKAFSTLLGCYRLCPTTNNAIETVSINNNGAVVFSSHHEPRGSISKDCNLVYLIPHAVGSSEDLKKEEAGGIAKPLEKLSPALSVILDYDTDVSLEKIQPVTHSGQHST

T1 sequence (P61169 whole entry): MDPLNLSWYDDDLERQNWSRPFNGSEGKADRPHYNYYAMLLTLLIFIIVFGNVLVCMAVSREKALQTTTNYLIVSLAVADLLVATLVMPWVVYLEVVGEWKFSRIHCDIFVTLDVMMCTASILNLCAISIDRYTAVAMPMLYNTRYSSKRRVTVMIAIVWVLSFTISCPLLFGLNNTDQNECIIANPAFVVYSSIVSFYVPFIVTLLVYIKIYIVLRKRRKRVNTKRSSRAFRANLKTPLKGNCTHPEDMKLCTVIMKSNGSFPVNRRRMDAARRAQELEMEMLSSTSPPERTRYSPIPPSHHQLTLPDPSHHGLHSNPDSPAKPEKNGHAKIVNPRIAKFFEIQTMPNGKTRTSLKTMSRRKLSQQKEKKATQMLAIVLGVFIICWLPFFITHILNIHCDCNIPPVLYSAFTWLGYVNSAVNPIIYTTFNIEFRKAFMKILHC

receptor action in lesioned rats (D1 receptors) | Compound | effect on D1-type and D2-type DA receptor binding [1] | receptor action in normal rats (D2 receptor)
– | COc1ccc2c(c1OC)CN1CCc3cc4c(cc3C1C2)OCO4 (stereo not drawn) [THB, tetrahydroberberine] | equipotent | –
acts on D1 receptors as an agonist | COc1cc2c(cc1O)[C@@H]1Cc3ccc(O)c(OC)c3CN1CC2 [l-SPD, l-Stepholidine] | – | characteristics of D2 receptor antagonist
